Test results: EPA's ToxValDB 9.5
Structures can show the parent of a compound that is named as a salt.

Tested on: Rattus norvegicus
[1] = chronic, duration: 2 years, oral, diet
[2] = subchronic, duration: 90 days, oral, diet, M/F, no effects

## CC=O [Acetaldehyde]
subchronic, duration: 11 weeks, oral, drinking water, other
  NOAEL: 120 mg/kg-day

## CC(=NC#N)N(C)Cc1ccc(Cl)nc1 [Acetamiprid]
Reproduction developmental, duration: 16 days, oral, gavage, F, other
  NOAEL: 2.5 mg/kg-day

## CCCCOC(=O)CC(CC(=O)OCCCC)(OC(C)=O)C(=O)OCCCC [Acetyl tributyl citrate]
subchronic, duration: 90 days, oral, body weight
  NOAEL: 100 mg/kg-day

## CC1=C(/C=C/C(C)=C/C=C/C(C)=C/C=C/C=C(C)/C=C/C=C(\C)C=O)C(C)(C)CCC1 [Apocarotenal]
subchronic, duration: 13 weeks, histopathology: nonneoplastic
  NOAEL: 30 mg/kg-day
subchronic, duration: 13 weeks, oral, M/F, Sprague-Dawley, histopathology: nonneoplastic
  LOAEL: 10 mg/kg-day

## CC(=O)Nc1ccc(S(=O)(=O)[O-])c2cc(S(=O)(=O)[O-])c(N=Nc3ccc(N=Nc4ccc(S(=O)(=O)[O-])cc4)c4ccc(S(=O)(=O)[O-])cc34)c(O)c12.[Na+].[Na+].[Na+].[Na+] [Black PN]
chronic, duration: 2 years, oral, diet, M/F, no effects
  NOAEL: 500 mg/kg-day

## O=C1C(c2[nH]c3ccc(S(=O)(=O)[O-])cc3c2O)=Nc2ccc(S(=O)(=O)[O-])cc21.[Na+].[Na+] [C.I. Acid Blue 74]
[1]
  NOAEL: 500 mg/kg-day
chronic, duration: 2 years, oral, diet, growth
  NOAEL: 500 mg/kg-day

## OC1OC[C@@H](O)[C@@H](O)[C@H]1O (stereo partly drawn) [D-Ribose]
subchronic, duration: 90 days, oral, diet, M/F, Wistar, body weight
  NOAEL: 3600 mg/kg-day

## CCCCC(CC)COC(=O)c1ccccc1C(=O)OCC(CC)CCCC (configuration not stated) [Di(2-ethylhexyl) phthalate]
developmental, Sprague-Dawley, development
  NOAEL: 5 mg/kg-day

## CC(C)CCCCCCOC(=O)c1ccccc1C(=O)OCCCCCCC(C)C [Diisononyl phthalate]
chronic, duration: 2 years, M/F, Fischer 344, histopathology: nonneoplastic
  NOAEL: 15 mg/kg-day

## CCOC(=O)CCCSC(C)=O [Ethyl 4-(acetylthio)butyrate]
subchronic, duration: 13 weeks, oral, diet
  NOEL: 6.5 mg/kg-day
subchronic, duration: 90 days, oral
  NOAEL: 6.63 mg/kg-day
[2]
  NOAEL: 6.63 mg/kg-day

## C#CCN1C(=O)COc2cc(F)c(N3C(=O)C4=C(CCCC4)C3=O)cc21 [Flumioxazin]
chronic, duration: 2 years, hematological
  NOAEL: 1.8 mg/kg-day
developmental, development
  NOAEL: 3 mg/kg-day
subchronic, duration: 90 days, oral, hematological
  NOAEL: 2.2 mg/kg-day

## O=Cc1ccco1 [Furfural]
subchronic, duration: 90 days, oral, diet, M/F, Fischer 344, hematological
  NOEL: 54 mg/kg-day

## OC[C@H]1O[C@H](OC[C@H]2O[C@@H](O)[C@@H](O)[C@@H](O)[C@@H]2O[C@@H]2O[C@H](CO)[C@@H](O)[C@H](O)[C@@H]2O)[C@H](O)[C@@H](O)[C@H]1O [Galactomannan]
short-term, duration: 28 days, M/F, Sprague-Dawley, clinical chemistry
  NOEL: 230 mg/kg-day

## Cl.N[C@@H](C=O)[C@@H](O)[C@H](O)[C@H](O)CO [Glucosamine hydrochloride]
chronic, duration: 52 weeks
  NOAEL: 2130 mg/kg-day

## O=C1O[C@H]([C@H](O)CO)C(O)=C1O [Isoascorbic acid]
chronic, duration: 2 years, oral, drinking water, M/F, Fischer 344, body weight
  NOAEL: 650 mg/kg-day

## CCCCC/C=C/C/C=C/CCCCCCCC(=O)O[C@H](COC(=O)CCCCCCCCCCCCCCC)COP(=O)([O-])OCC[N+](C)(C)C [Lecithin]
chronic, duration: 24 weeks, oral, gavage, Wistar, no effects
  NOAEL: 3750 mg/kg-day

## CCCCCC1C(=O)CCC1CC(=O)OC (configuration not stated) [Methyl dihydrojasmonate]
subchronic, duration: 90 days, oral, diet, M/F, Sprague-Dawley, no effects
  NOAEL: 100 mg/kg-day

## CCCCCCCCCCCC[N+](C)(C)[O-] [N,N-Dimethyldodecylamine-N-oxide]
[1]
  NOAEL: 50 mg/kg-day

## CC(C)=CCC/C(C)=C/CNC(=O)C1CC1 [N-3,7-Dimethyl-2,6-octadienyl cyclopropylcarboxamide, (2E)-]
[2]
  NOAEL: 73.3 mg/kg-day

## CCCC(CCC)NC(=O)c1ccc2c(c1)OCO2 [N-(1-Propylbutyl)-1,3-benzodioxole-5-carboxamide]
chronic, duration: 93 days
  NOEL: 20 mg/kg-day

## COc1ccc(CCC(=O)c2c(O)cc(O[C@@H]3O[C@H](CO)[C@@H](O)[C@H](O)[C@H]3O[C@@H]3O[C@@H](C)[C@H](O)[C@@H](O)[C@H]3O)cc2O)cc1O [Neohesperidin dihydrochalcone]
Repeat dose other, no effects
  NOAEL: 500 mg/kg-day

## O=C1CN(/N=C/c2ccc([N+](=O)[O-])o2)C(=O)N1 [Nitrofurantoin]
Reproduction developmental, oral, reproduction
  LEL: 10 mg/kg-day

## C1CCNCC1 [Piperidine]
subchronic, duration: 90 days, oral, M/F, Sprague-Dawley, clinical chemistry
  NOAEL: 5 mg/kg-day

## O=C(/C=C/c1ccc(O)c(O)c1)O[C@H](Cc1ccc(O)c(O)c1)C(=O)O [Rosmarinic acid]
subchronic, duration: 90 days, oral, gavage, M/F, Sprague-Dawley, no effects
  NOAEL: 300 mg/kg-day

## C=C1CCC2(C(C)C)CC12 (configuration not stated) [Sabinen]
subchronic, duration: 90 days, oral, diet, M/F, Sprague-Dawley, hematological
  NOAEL: 222 mg/kg-day

## O=S([O-])S(=O)(=O)[O-].[Na+].[Na+] [Sodium metabisulfite]
chronic, duration: 2 years, oral, diet, M/F, histopathology: nonneoplastic
  NOAEL: 72 mg/kg-day

## CCCCCCCCCCCCCCCCCC(=O)OC(C)C(=O)OC(C)C(=O)[O-].[Na+] (configuration not stated) [Sodium stearoyl lactylate]
chronic, duration: 1 years, M/F, Wistar, no effects
  NOAEL: 2200 mg/kg-day

## Cc1ncc(C[n+]2csc(CCO)c2C)c(N)n1.Cl.[Cl-] [Thiamine hydrochloride]
subchronic, duration: 90 days, oral, diet
  NOAEL: 36 mg/kg-day

## [O]=[Ti]=[O] [Titanium dioxide]
chronic, duration: 103 weeks, oral, diet, M/F, Fischer 344, no effects
  NOAEL: 2250 mg/kg-day

## CNC(=O)C(C)(C(C)C)C(C)C [Trimethyl isopropyl butanamide]
chronic, duration: 14 weeks, oral, diet, M/F, histopathology: nonneoplastic
  NOEL: 5 mg/kg-day

## COc1ccc(C=O)cc1OC [Veratraldehyde]
subchronic, duration: 13 weeks, oral, gavage, no effects
  NOAEL: 400 mg/kg-day
